Experimental data taken from patent US20250230193A1, “CYCLIC COMPOUND HAVING SELECTIVE KRAS INHIBITORY EFFECT ON HRAS AND NRAS” (CHUGAI SEIYAKU KABUSHIKI KAISHA, priority 2022, published 2025).
*1 amine or outer side, *2 acyl side, *3 side chain or, on linkers, in order; H or OH if unused. Where a SMILES comes first, the peptide text is derived from it. Bridges are numbered along the chain shown (N, C = ends). [ ]: non-standard residue; d: D form. The star is where a group is joined. hPhe(3-Cl-4-CF3) = N[C@@H](CCc1ccc(C(F)(F)F)c(Cl)c1)C(=O)O; NPrPhe(4-CF3) = CCCN[C@@H](Cc1ccc(C(F)(F)F)cc1)C(=O)O; X39 = Cc1ccc(C[C@@H](C(=O)[*:2])N(CC(C)C)[*:1])cc1; X49 = Cc1ccc(C[C@@H](C(=O)[*:2])N(CC2CC2)[*:1])cc1; X19 = CCCCN([C@@H](Cc1ccc(C)cc1)C(=O)[*:2])[*:1]; NPrPhe(4-Me) = CCCN[C@@H](Cc1ccc(C)cc1)C(=O)O; X5 = CCCN([C@H](C(=O)[*:2])C1CCCC1)[*:1]; NMeGly(cPent) = CN[C@H](C(=O)O)C1CCCC1; NMeD = CN[C@@H](CC(=O)O)C(=O)O; NMeL = CN[C@@H](CC(C)C)C(=O)O; Morpholide = C1CN(*)CCO1; NMeA = CN[C@@H](C)C(=O)O; Ac5c = NC1(C(=O)O)CCCC1; Aze = O=C(O)[C@@H]1CCN1; NEtG = CCNCC(=O)O; Sar = CNCC(=O)O

Assays:
[1] = molecular target: GDP-bound HRAS wild-type protein (Homo sapiens, UniProt P01112); experiment: Binding to HRAS by surface plasmon resonance (SPR), Single Cycle Kinetics; conditions: KD ratio HRAS/KRAS, SPR
GDP-bound HRAS wild-type protein, sequence (P01112 whole entry): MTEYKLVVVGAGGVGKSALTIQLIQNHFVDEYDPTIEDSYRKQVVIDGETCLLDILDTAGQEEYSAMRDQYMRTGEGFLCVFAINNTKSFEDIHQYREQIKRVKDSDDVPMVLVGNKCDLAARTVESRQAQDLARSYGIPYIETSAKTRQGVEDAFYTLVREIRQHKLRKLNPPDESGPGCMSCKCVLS

[2] = molecular target: GDP-bound NRAS wild-type protein (Homo sapiens, UniProt P01111); experiment: Binding to NRAS by surface plasmon resonance (SPR), Single Cycle Kinetics; conditions: KD ratio NRAS/KRAS, SPR
GDP-bound NRAS wild-type protein, sequence (P01111 whole entry): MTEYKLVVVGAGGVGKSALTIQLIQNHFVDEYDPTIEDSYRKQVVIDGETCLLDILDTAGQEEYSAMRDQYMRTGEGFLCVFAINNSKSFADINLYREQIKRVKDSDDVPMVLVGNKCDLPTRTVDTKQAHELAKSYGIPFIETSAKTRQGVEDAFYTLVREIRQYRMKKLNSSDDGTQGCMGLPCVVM

Row | SMILES | HRAS/KRAS (ratio of KD for GDP-bound HRAS wild-type to KD for KRAS) [1] | NRAS/KRAS (ratio of KD for GDP-bound NRAS wild-type to KD for KRAS) [2]
1 | CCCN1C(=O)[C@@H]2CCN2C(=O)[C@H](C)N(C)C(=O)[C@H]([C@@H](C)CC)NC(=O)[C@H](CC(C)C)N(C)C(=O)C[C@@H](C(=O)N2CCOCC2)N(C)C(=O)[C@H](C2CCCC2)N(C)C(=O)C2(CCCC2)NC(=O)[C@@H]2CCCN2C(=O)[C@H](CCc2ccc(C(F)(F)F)c(Cl)c2)NC(=O)CN(C)C(=O)[C@@H]1Cc1ccc(C)cc1 [PP0052] ([NMeL]I[NMeA][Aze][NPrPhe(4-Me)][Sar][hPhe(3-Cl-4-CF3)]P[Ac5c][NMeGly(cPent)][NMeD]-Morpholide; lactam N-11) | B (a compound having 3 or more and less than 10 is denoted as B) | C (A compound having a KD ratio of 0.1 or more and less than 3 is denoted as C)
2 | CCCN1C(=O)[C@@H]2CCN2C(=O)[C@H](C)N(C)C(=O)[C@H]([C@@H](C)CC)NC(=O)[C@H](CC(C)C)N(C)C(=O)C[C@@H](C(=O)N2CCOCC2)N(C)C(=O)[C@H](C2CCCC2)N(C)C(=O)C2(CCCC2)NC(=O)[C@@H]2CCCN2C(=O)[C@H](CCc2ccc(C(F)(F)F)c(Cl)c2)NC(=O)CN(C)C(=O)[C@@H]1Cc1ccc(C(F)(F)F)cc1 [PP0053] ([NMeL]I[NMeA][Aze][NPrPhe(4-CF3)][Sar][hPhe(3-Cl-4-CF3)]P[Ac5c][NMeGly(cPent)][NMeD]-Morpholide; lactam N-11) | C (A compound having a KD ratio of 0.1 or more and less than 3 is denoted as C) | C (A compound having a KD ratio of 0.1 or more and less than 3 is denoted as C)
3 | CCCCN1C(=O)[C@@H]2CCN2C(=O)[C@H](C)N(C)C(=O)[C@H]([C@@H](C)CC)NC(=O)[C@H](CC(C)C)N(C)C(=O)C[C@@H](C(=O)N2CCOCC2)N(C)C(=O)[C@H](C2CCCC2)N(C)C(=O)C2(CCCC2)NC(=O)[C@@H]2CCCN2C(=O)[C@H](CCc2ccc(C(F)(F)F)c(Cl)c2)NC(=O)CN(C)C(=O)[C@@H]1Cc1ccc(C)cc1 [PP0055] ([NMeL]I[NMeA][Aze][X19][Sar][hPhe(3-Cl-4-CF3)]P[Ac5c][NMeGly(cPent)][NMeD]-Morpholide; lactam N-11) | C (A compound having a KD ratio of 0.1 or more and less than 3 is denoted as C) | C (A compound having a KD ratio of 0.1 or more and less than 3 is denoted as C)
4 | CC[C@H](C)[C@@H]1NC(=O)[C@H](CC(C)C)N(C)C(=O)C[C@@H](C(=O)N2CCOCC2)N(C)C(=O)[C@H](C2CCCC2)N(C)C(=O)C2(CCCC2)NC(=O)[C@@H]2CCCN2C(=O)[C@H](CCc2ccc(C(F)(F)F)c(Cl)c2)NC(=O)CN(C)C(=O)[C@H](Cc2ccc(C)cc2)N(CC(C)C)C(=O)[C@@H]2CCN2C(=O)[C@H](C)N(C)C1=O [PP0056] ([NMeL]I[NMeA][Aze][X39][Sar][hPhe(3-Cl-4-CF3)]P[Ac5c][NMeGly(cPent)][NMeD]-Morpholide; lactam N-11) | B (a compound having 3 or more and less than 10 is denoted as B) | C (A compound having a KD ratio of 0.1 or more and less than 3 is denoted as C)
5 | CC[C@H](C)[C@@H]1NC(=O)[C@H](CC(C)C)N(C)C(=O)C[C@@H](C(=O)N2CCOCC2)N(C)C(=O)[C@H](C2CCCC2)N(C)C(=O)C2(CCCC2)NC(=O)[C@@H]2CCCN2C(=O)[C@H](CCc2ccc(C(F)(F)F)c(Cl)c2)NC(=O)CN(C)C(=O)[C@H](Cc2ccc(C)cc2)N(CC2CC2)C(=O)[C@@H]2CCN2C(=O)[C@H](C)N(C)C1=O [PP0057] ([NMeL]I[NMeA][Aze][X49][Sar][hPhe(3-Cl-4-CF3)]P[Ac5c][NMeGly(cPent)][NMeD]-Morpholide; lactam N-11) | B (a compound having 3 or more and less than 10 is denoted as B) | C (A compound having a KD ratio of 0.1 or more and less than 3 is denoted as C)
6 | CCCN1C(=O)[C@@H]2CCN2C(=O)[C@H](C)N(C)C(=O)[C@H]([C@@H](C)CC)NC(=O)[C@H](CC(C)C)N(C)C(=O)C[C@@H](C(=O)N2CCOCC2)N(C)C(=O)[C@H](C2CCCC2)N(C)C(=O)C2(CCCC2)NC(=O)[C@@H]2CCCN2C(=O)[C@H](CCc2ccc(C(F)(F)F)c(Cl)c2)NC(=O)CN(CC)C(=O)[C@@H]1Cc1ccc(C)cc1 [PP0058] ([NMeL]I[NMeA][Aze][NPrPhe(4-Me)][NEtG][hPhe(3-Cl-4-CF3)]P[Ac5c][NMeGly(cPent)][NMeD]-Morpholide; lactam N-11) | C (A compound having a KD ratio of 0.1 or more and less than 3 is denoted as C) | C (A compound having a KD ratio of 0.1 or more and less than 3 is denoted as C)
7 | CCCN1C(=O)CN(C)C(=O)CN(C)C(=O)[C@H]([C@@H](C)CC)NC(=O)[C@H](CC(C)C)N(C)C(=O)C[C@@H](C(=O)N2CCOCC2)N(C)C(=O)[C@H](C2CCCC2)N(C)C(=O)C2(CCCC2)NC(=O)[C@@H]2CCCN2C(=O)[C@H](CCc2ccc(C(F)(F)F)c(Cl)c2)NC(=O)CN(C)C(=O)[C@@H]1Cc1ccc(C)cc1 [PP0059] ([NMeL]I[Sar][Sar][NPrPhe(4-Me)][Sar][hPhe(3-Cl-4-CF3)]P[Ac5c][NMeGly(cPent)][NMeD]-Morpholide; lactam N-11) | C (A compound having a KD ratio of 0.1 or more and less than 3 is denoted as C) | B (a compound having 3 or more and less than 10 is denoted as B)
8 | CCCN1C(=O)CN(C)C(=O)CN(C)C(=O)[C@H]([C@@H](C)CC)NC(=O)[C@H](CC(C)C)N(C)C(=O)C[C@@H](C(=O)N2CCOCC2)N(C)C(=O)[C@H](C2CCCC2)N(C)C(=O)C2(CCCC2)NC(=O)[C@@H]2CCCN2C(=O)[C@H](CCc2ccc(C(F)(F)F)c(Cl)c2)NC(=O)CN(C)C(=O)[C@@H]1Cc1ccc(C(F)(F)F)cc1 [PP0060] ([NMeL]I[Sar][Sar][NPrPhe(4-CF3)][Sar][hPhe(3-Cl-4-CF3)]P[Ac5c][NMeGly(cPent)][NMeD]-Morpholide; lactam N-11) | B (a compound having 3 or more and less than 10 is denoted as B) | B (a compound having 3 or more and less than 10 is denoted as B)
9 | CCCN1C(=O)CN(C)C(=O)CN(C)C(=O)[C@H]([C@@H](C)CC)NC(=O)[C@H](CC(C)C)N(C)C(=O)C[C@@H](C(=O)N2CCOCC2)N(C)C(=O)[C@H](C2CCCC2)N(C)C(=O)C2(CCCC2)NC(=O)[C@@H]2CCCN2C(=O)[C@H](CCc2ccc(C(F)(F)F)c(Cl)c2)NC(=O)CN(C)C(=O)[C@@H]1C1CCCC1 [PP0061] ([NMeL]I[Sar][Sar][X5][Sar][hPhe(3-Cl-4-CF3)]P[Ac5c][NMeGly(cPent)][NMeD]-Morpholide; lactam N-11) | C (A compound having a KD ratio of 0.1 or more and less than 3 is denoted as C) | B (a compound having 3 or more and less than 10 is denoted as B)
10 | CCCCN1C(=O)CN(C)C(=O)CN(C)C(=O)[C@H]([C@@H](C)CC)NC(=O)[C@H](CC(C)C)N(C)C(=O)C[C@@H](C(=O)N2CCOCC2)N(C)C(=O)[C@H](C2CCCC2)N(C)C(=O)C2(CCCC2)NC(=O)[C@@H]2CCCN2C(=O)[C@H](CCc2ccc(C(F)(F)F)c(Cl)c2)NC(=O)CN(C)C(=O)[C@@H]1Cc1ccc(C)cc1 [PP0062] ([NMeL]I[Sar][Sar][X19][Sar][hPhe(3-Cl-4-CF3)]P[Ac5c][NMeGly(cPent)][NMeD]-Morpholide; lactam N-11) | C (A compound having a KD ratio of 0.1 or more and less than 3 is denoted as C) | C (A compound having a KD ratio of 0.1 or more and less than 3 is denoted as C)
11 | CC[C@H](C)[C@@H]1NC(=O)[C@H](CC(C)C)N(C)C(=O)C[C@@H](C(=O)N2CCOCC2)N(C)C(=O)[C@H](C2CCCC2)N(C)C(=O)C2(CCCC2)NC(=O)[C@@H]2CCCN2C(=O)[C@H](CCc2ccc(C(F)(F)F)c(Cl)c2)NC(=O)CN(C)C(=O)[C@H](Cc2ccc(C)cc2)N(CC(C)C)C(=O)CN(C)C(=O)CN(C)C1=O [PP0063] ([NMeL]I[Sar][Sar][X39][Sar][hPhe(3-Cl-4-CF3)]P[Ac5c][NMeGly(cPent)][NMeD]-Morpholide; lactam N-11) | C (A compound having a KD ratio of 0.1 or more and less than 3 is denoted as C) | C (A compound having a KD ratio of 0.1 or more and less than 3 is denoted as C)
12 | CC[C@H](C)[C@@H]1NC(=O)[C@H](CC(C)C)N(C)C(=O)C[C@@H](C(=O)N2CCOCC2)N(C)C(=O)[C@H](C2CCCC2)N(C)C(=O)C2(CCCC2)NC(=O)[C@@H]2CCCN2C(=O)[C@H](CCc2ccc(C(F)(F)F)c(Cl)c2)NC(=O)CN(C)C(=O)[C@H](Cc2ccc(C)cc2)N(CC2CC2)C(=O)CN(C)C(=O)CN(C)C1=O [PP0064] ([NMeL]I[Sar][Sar][X49][Sar][hPhe(3-Cl-4-CF3)]P[Ac5c][NMeGly(cPent)][NMeD]-Morpholide; lactam N-11) | C (A compound having a KD ratio of 0.1 or more and less than 3 is denoted as C) | C (A compound having a KD ratio of 0.1 or more and less than 3 is denoted as C)
13 | CCCN1C(=O)CN(CC)C(=O)CN(C)C(=O)[C@H]([C@@H](C)CC)NC(=O)[C@H](CC(C)C)N(C)C(=O)C[C@@H](C(=O)N2CCOCC2)N(C)C(=O)[C@H](C2CCCC2)N(C)C(=O)C2(CCCC2)NC(=O)[C@@H]2CCCN2C(=O)[C@H](CCc2ccc(C(F)(F)F)c(Cl)c2)NC(=O)CN(C)C(=O)[C@@H]1Cc1ccc(C)cc1 [PP0065] ([NMeL]I[Sar][NEtG][NPrPhe(4-Me)][Sar][hPhe(3-Cl-4-CF3)]P[Ac5c][NMeGly(cPent)][NMeD]-Morpholide; lactam N-11) | C (A compound having a KD ratio of 0.1 or more and less than 3 is denoted as C) | C (A compound having a KD ratio of 0.1 or more and less than 3 is denoted as C)
